Assay results: the supplement of paper PMC10307832

Experiments:
Assay in all cases: relative viability (nuclei count vs DMSO), 5 days (fraction); higher = more cells survive
[1] = compound: CC1=C(C(=O)N2C=CSC2=N1)CCN3CCC(=C(C4=CC=CC=C4)C5=CC=C(C=C5)F)CC3 + COc1cccc2cc(-c3nc([C@H]4CC[C@H](C(=O)O)CC4)n4ncnc(N)c34)[nH]c12 [OSI-027] (partner 0.5 µM)
Summary of the method: (§1)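 After 5 days of treatment, lung cancer cells in 1536-well plates were fixed and stained in a single step (final 0.05% Triton X-100, 1% formaldehyde, 1 ug/ml Hoechst) and their nuclei counted on 4× images. Treatment had been applied by pin tool the day after seeding as one drug alone or as a fixed anchor-drug dose with five library-drug doses (not always all listed) in √10 steps. Relative viability is the nuclei count of treated wells divided by that of vehicle wells, and values are medians of duplicate plates.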

[2] = compound: CC1=C(C(=O)N2C=CSC2=N1)CCN3CCC(=C(C4=CC=CC=C4)C5=CC=C(C=C5)F)CC3 + C[C@]1(O)C[C@@H](c2nc(-c3ccc4ccc(-c5ccccc5)nc4c3)c3c(N)nccn32)C1 [Linsitinib] (partner 1 µM)
Summary of the method: as §1

[3] = compound: CC1=C(C(=O)N2C=CSC2=N1)CCN3CCC(=C(C4=CC=CC=C4)C5=CC=C(C=C5)F)CC3 + C[C@@H](Oc1cc(-c2cnn(C3CCNCC3)c2)cnc1N)c1c(Cl)ccc(F)c1Cl [Crizotinib] (partner 1 µM)
Summary of the method: as §1

[4] = compound: CC1=C(C(=O)N2C=CSC2=N1)CCN3CCC(=C(C4=CC=CC=C4)C5=CC=C(C=C5)F)CC3 + Cc1cc(Nc2cc(N3CCN(C)CC3)nc(Sc3ccc(NC(=O)C4CC4)cc3)n2)n[nH]1 [Tozasertib] (partner 0.1 µM)
Summary of the method: as §1

Row | Cell Line | relative viability ([1]; first compound 0.08 µM) | relative viability ([1]; first compound 0.253 µM) | relative viability ([1]; first compound 0.8 µM) | relative viability ([1]; first compound 2.53 µM) | relative viability ([1]; first compound 8 µM) | relative viability ([2]; first compound 0.08 µM) | relative viability ([2]; first compound 0.253 µM) | relative viability ([2]; first compound 0.8 µM) | relative viability ([2]; first compound 2.53 µM) | relative viability ([2]; first compound 8 µM) | relative viability ([3]; first compound 0.08 µM) | relative viability ([3]; first compound 0.253 µM) | relative viability ([3]; first compound 0.8 µM) | relative viability ([3]; first compound 2.53 µM) | relative viability ([3]; first compound 8 µM) | relative viability ([4]; first compound 0.08 µM) | relative viability ([4]; first compound 0.253 µM) | relative viability ([4]; first compound 0.8 µM) | relative viability ([4]; first compound 2.53 µM) | relative viability ([4]; first compound 8 µM)
1 | LK-2 | 0.242 | 0.188 | 0.156 | 0.18 | 0.212 | 0.548 | 0.531 | 0.846 | 0.502 | 0.529 | 0.291 | 0.234 | 0.202 | 0.293 | 0.29 | 0.176 | 0.188 | 0.172 | 0.161 | 0.174
2 | NCI-H1944 | 0.408 | 0.42 | 0.37 | 0.426 | 0.31 | 1.3 | 1.16 | 1.07 | 1.21 | 1.23 | 1.06 | 1.08 | 1.22 | 1.14 | 1.07 | 0.26 | 0.273 | 0.226 | 0.224 | 0.204
3 | NCI-H647 | 0.581 | 0.66 | 0.652 | 0.72 | 0.316 | 1.1 | 0.895 | 1.16 | 1.86 | 0.846 | 1.09 | 1.61 | 1.01 | 1.34 | 0.476 | 0.267 | – | 0.437 | 0.105 | 0.141
4 | NCI-H2347 | 0.371 | 0.425 | 0.406 | 0.332 | 0.349 | 0.921 | 0.958 | 0.977 | 0.932 | 0.804 | 0.692 | 0.801 | 0.675 | 0.508 | 0.684 | 0.439 | 0.554 | 0.525 | 0.471 | 0.487
5 | H3255 | 0.474 | 0.572 | 0.65 | 0.594 | 0.512 | 1 | 0.888 | 1.02 | 1.03 | 0.726 | 0.776 | 0.967 | 0.798 | 0.916 | 0.752 | 0.497 | 0.921 | 0.633 | 0.489 | 0.507
6 | NCI-H1755 | 0.744 | 0.861 | 0.664 | 0.68 | 0.672 | 1.04 | 0.98 | 0.973 | 0.981 | 0.779 | 0.927 | 0.87 | 0.907 | 0.997 | 0.722 | 0.553 | 0.614 | 0.604 | 0.547 | 0.421
7 | RERF-LC-KJ | 0.411 | 0.583 | 0.546 | 0.523 | 0.497 | 0.879 | 0.933 | 0.883 | 0.832 | 0.672 | 0.789 | 0.851 | 0.775 | 0.835 | 0.795 | 0.432 | 0.462 | 0.518 | 0.426 | 0.452
8 | HCC-15 | 0.593 | 0.628 | 0.707 | 0.782 | 0.507 | 0.931 | 0.931 | 0.942 | 1.04 | 0.744 | 0.804 | 0.88 | 0.933 | 0.795 | 0.576 | 0.347 | 0.447 | 0.379 | 0.368 | 0.281
9 | NCI-H650 | 0.513 | 0.489 | 0.551 | 0.504 | 0.531 | – | 0.81 | 0.779 | 0.878 | 0.608 | – | 0.791 | 0.377 | 0.718 | 0.608 | 0.695 | 0.801 | 0.748 | 0.723 | 0.689
10 | LU99A | 0.333 | 0.313 | 0.254 | 0.276 | 0.25 | 0.565 | 0.495 | 0.517 | 0.666 | 0.446 | 0.602 | 0.636 | 0.558 | 0.625 | 0.444 | 0.299 | 0.272 | 0.268 | 0.307 | 0.197
11 | SK-MES-1 | 0.405 | 0.524 | 0.587 | 0.554 | 0.706 | 1.1 | 1.2 | 1.08 | 1.03 | 0.789 | 1.11 | 0.969 | 0.975 | 1.1 | 0.916 | 0.922 | 0.971 | 0.862 | 1.08 | 0.601
12 | A-427 | 0.421 | 0.364 | 0.421 | 0.49 | 0.432 | 1.06 | 1.05 | 1.13 | 1.17 | 0.959 | 0.749 | 0.95 | 0.942 | 0.963 | 0.646 | 0.179 | 0.19 | 0.175 | 0.204 | 0.21
13 | NCI-H727 | 0.52 | 0.51 | 0.527 | 0.638 | 0.45 | 0.194 | 0.227 | 0.298 | 0.437 | 0.295 | 0.846 | 0.934 | 0.741 | 0.948 | 0.59 | 0.511 | 0.589 | 0.625 | 0.739 | 0.598
14 | HCC-827 | 0.761 | 0.776 | 0.842 | 0.833 | 0.62 | 0.961 | 0.969 | 0.927 | 0.996 | 0.926 | 0.898 | 0.924 | 0.911 | 0.98 | 0.946 | 0.43 | 0.396 | 0.389 | 0.472 | 0.399
15 | NCI-H2087 | 0.364 | 0.587 | 0.696 | 0.566 | 0.237 | 1.06 | 0.9 | 0.852 | 1.12 | 0.745 | 0.818 | 0.813 | 0.94 | 0.944 | 0.525 | 0.298 | 0.245 | 0.276 | 0.242 | 0.23
16 | NCI-H2228 | 0.567 | 0.532 | 0.632 | 0.597 | 0.378 | 0.769 | 0.803 | 0.672 | 0.706 | 0.445 | 0.6 | 0.486 | 0.376 | 0.539 | 0.322 | 0.278 | 0.237 | 0.227 | 0.232 | 0.282
